Measured values reported in publication PMC6815239 (Nature chemistry, 2019).
One block for each compound: values may come before it.

Key:
[1] = biological target: MalA (Malbranchea aurantiaca, UniProt L0E155); experiment: LC/MS halogenation assay; type: biochemical; conditions: full pathway reconstitution, NaCl
[2] = biological target: MalG R (Malbranchea aurantiaca, UniProt L0E2Z1); experiment: LC/MS product formation; type: biochemical; conditions: substrate analog 23 loaded on MalG T2
[3] = biological target: T1, PhqE (Penicillium fellutanum, UniProt L0E2Z4); experiment: X-ray crystal structure, […] Å; type: binding; conditions: complex with (+)-premalbrancheamide
[4] = biological target: T1, PhqE; experiment: X-ray crystal structure; type: binding; conditions: crystals grown with NAD+
[5] = biological target: T2, MalE (Malbranchea aurantiaca, UniProt L0E2P7); experiment: prenyltransferase assay, LC/MS; type: biochemical; conditions: substrate-loaded MalG domains, NADPH
T2 sequence (L0E2P7 1-438): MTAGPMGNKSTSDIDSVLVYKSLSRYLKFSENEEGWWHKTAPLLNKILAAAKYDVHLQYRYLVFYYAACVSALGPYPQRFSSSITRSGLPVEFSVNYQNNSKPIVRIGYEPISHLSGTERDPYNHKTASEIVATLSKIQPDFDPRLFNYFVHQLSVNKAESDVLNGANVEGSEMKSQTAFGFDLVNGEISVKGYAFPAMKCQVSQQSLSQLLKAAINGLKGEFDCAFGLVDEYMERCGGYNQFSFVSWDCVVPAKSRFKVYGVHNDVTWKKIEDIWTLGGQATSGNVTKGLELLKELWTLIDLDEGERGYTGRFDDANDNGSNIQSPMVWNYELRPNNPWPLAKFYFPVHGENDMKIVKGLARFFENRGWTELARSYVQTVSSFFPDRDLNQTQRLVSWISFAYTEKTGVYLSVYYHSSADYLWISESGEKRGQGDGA

[6] = biological target: T3, MalB (Malbranchea aurantiaca, UniProt L0E2Y5); experiment: prenyltransferase assay, LC/MS; type: biochemical; conditions: substrate-loaded MalG domains, NADPH
T3 sequence (L0E2Y5 1-369): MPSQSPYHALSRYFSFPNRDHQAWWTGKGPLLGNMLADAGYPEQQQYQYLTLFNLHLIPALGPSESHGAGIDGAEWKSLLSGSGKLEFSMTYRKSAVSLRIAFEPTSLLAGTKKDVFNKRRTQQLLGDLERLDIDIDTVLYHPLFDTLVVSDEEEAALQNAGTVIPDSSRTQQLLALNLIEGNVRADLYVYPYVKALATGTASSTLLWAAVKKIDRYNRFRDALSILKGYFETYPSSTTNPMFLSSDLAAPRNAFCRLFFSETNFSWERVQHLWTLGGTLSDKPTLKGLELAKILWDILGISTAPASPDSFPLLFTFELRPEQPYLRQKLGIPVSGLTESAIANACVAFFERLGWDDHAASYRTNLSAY

T1 sequence (L0E2Z4 whole entry): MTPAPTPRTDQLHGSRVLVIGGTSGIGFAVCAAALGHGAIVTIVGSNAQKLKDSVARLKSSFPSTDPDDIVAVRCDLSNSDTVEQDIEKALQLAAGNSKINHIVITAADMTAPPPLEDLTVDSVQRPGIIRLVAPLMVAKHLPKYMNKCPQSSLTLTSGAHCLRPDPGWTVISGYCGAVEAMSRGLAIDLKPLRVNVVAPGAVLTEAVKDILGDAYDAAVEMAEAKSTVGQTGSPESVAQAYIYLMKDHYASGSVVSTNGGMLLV
Chain of MalG R (L0E2Z1 1950-2345): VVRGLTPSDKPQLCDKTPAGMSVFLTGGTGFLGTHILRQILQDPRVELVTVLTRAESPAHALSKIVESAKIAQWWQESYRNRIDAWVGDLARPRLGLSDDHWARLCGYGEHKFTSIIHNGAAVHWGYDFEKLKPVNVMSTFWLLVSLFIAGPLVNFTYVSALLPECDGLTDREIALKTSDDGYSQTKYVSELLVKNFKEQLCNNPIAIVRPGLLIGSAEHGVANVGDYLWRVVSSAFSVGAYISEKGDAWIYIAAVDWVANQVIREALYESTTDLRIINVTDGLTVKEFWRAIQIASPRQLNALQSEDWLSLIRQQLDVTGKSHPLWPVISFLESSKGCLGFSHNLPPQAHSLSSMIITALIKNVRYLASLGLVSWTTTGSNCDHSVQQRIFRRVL
Chain of MalA (L0E155 whole entry): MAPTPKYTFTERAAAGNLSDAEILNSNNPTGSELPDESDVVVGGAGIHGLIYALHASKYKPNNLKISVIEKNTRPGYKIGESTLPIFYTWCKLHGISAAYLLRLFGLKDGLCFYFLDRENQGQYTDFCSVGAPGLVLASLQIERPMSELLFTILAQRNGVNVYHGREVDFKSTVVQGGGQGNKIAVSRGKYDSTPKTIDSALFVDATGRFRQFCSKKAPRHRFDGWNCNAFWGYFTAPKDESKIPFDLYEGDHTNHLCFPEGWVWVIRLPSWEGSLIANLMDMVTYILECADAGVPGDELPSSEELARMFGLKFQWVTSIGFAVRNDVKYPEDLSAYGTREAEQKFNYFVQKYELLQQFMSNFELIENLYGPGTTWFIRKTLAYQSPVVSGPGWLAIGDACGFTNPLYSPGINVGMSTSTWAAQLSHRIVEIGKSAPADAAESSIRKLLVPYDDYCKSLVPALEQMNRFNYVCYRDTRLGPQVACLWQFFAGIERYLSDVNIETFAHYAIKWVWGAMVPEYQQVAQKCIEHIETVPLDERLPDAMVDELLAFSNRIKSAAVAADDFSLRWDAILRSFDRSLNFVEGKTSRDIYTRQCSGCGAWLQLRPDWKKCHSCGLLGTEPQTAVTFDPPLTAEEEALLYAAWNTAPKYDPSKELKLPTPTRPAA

SMILES: Cc1cc2c(cc1C)N(C[C@H](O)[C@H](O)[C@H](O)COP(=O)(O)OP(=O)(O)OC[C@H]1O[C@@H](n3cnc4c(N)ncnc43)[C@H](O)[C@@H]1O)c1[nH]c(=O)[nH]c(=O)c1N2 [FADH2]
LC/MS halogenation assay [1]: We incubated MalA with its pathway partners (L-Pro and L-Trp MalG, MalE and MalC, NADPH

SMILES: NC(=O)C1=CN([C@@H]2O[C@H](COP(=O)(O)OP(=O)(O)OC[C@H]3O[C@@H](n4cnc5c(N)ncnc54)[C@H](OP(=O)(O)O)[C@@H]3O)[C@@H](O)[C@H]2O)C=CC1 [NADPH]
LC/MS product formation [2]: NADPH was the preferred cofactor in this reaction

SMILES: NC(=O)c1ccc[n+]([C@@H]2O[C@H](COP(=O)(O)OP(=O)(O)OC[C@H]3O[C@@H](n4cnc5c(N)ncnc54)[C@H](OP(=O)(O)O)[C@@H]3O)[C@@H](O)[C@H]2O)c1 [NADP^+]
X-ray crystal structure, 2.4 Å [3]: PhqE crystals grown with NADP^+ showed strong electron density for the cofactor

X-ray crystal structure [4]: while NAD^+ showed weak electron density
SMILES: NC(=O)c1ccc[n+]([C@@H]2O[C@H](COP(=O)(O)OP(=O)(O)OC[C@H]3O[C@@H](n4cnc5c(N)ncnc54)[C@H](O)[C@@H]3O)[C@@H](O)[C@H]2O)c1 [NAD^+]

SMILES: CC(C)=CCOP(=O)(O)OP(=O)(O)O [dimethylallyl pyrophosphate]
prenyltransferase assay, LC/MS [5]: dimethylallyl pyrophosphate (DMAPP), the prenyl donor. MalE readily catalyzed a C2 reverse prenyl transfer
prenyltransferase assay, LC/MS [6]: whereas MalB displayed modest activity
